Results on 67 molecules are retold here after patent US20060252807A1, “Novel ortho-terphenyl inhibitors of p38 kinase and methods of treating inflammatory disorders” (Kalypsys, Inc., priority 2005, published 2006).

For orientation: IC50 means the concentration that gives 50% inhibition. Higher therefore signals lower potency.

In this assay the target is T1, active p38 alpha enzyme (Upstate Biotechnology) (Homo sapiens, UniProt Q16539).
T1 construct: purchased Upstate Biotechnology
In words: p38α biochemical assay (ATP turnover, luminescent detection, Cambrex PKlight). To be noted: p38α kinase; Table 1 Biological Activity. Put shortly:
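p38α + MapkapK2 (whole protein substrate) + 1.4 uM ATP final; Tris/MOPS buffer with MgCl2, CaCl2, EGTA, EDTA, glycerol, β-ME, BSA; 2 h at 30C; luminescent detection of remaining ATP.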

T1 sequence (Q16539 whole entry): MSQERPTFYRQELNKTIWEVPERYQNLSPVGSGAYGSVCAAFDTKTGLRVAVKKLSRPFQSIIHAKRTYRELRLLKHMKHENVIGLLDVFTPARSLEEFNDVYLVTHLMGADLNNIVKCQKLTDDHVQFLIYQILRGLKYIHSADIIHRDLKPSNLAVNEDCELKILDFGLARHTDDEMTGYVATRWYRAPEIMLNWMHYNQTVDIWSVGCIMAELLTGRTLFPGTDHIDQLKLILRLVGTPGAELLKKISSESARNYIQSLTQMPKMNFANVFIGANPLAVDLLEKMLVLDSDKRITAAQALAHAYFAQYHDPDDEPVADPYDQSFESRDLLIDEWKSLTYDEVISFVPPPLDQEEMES

Regarding `CCc1ccccc1NCc1nc(-c2ccc(F)cc2)c(-c2nc(C(=O)NC(C)C)cs2)o1` [Example 1319], the 50% inhibitory concentration (IC50) was over 1000 nM.
The molecule `Cc1cccc(NCc2nc(-c3ccc(F)cc3)c(-c3nc(C(=O)NC(C)C)cs3)o2)c1C` [Example 1321] yielded an IC50 of over 1000 nM.
`Cc1ccc(NCc2nc(-c3ccc(F)cc3)c(-c3nc(C(=O)NC(C)C)cs3)o2)c(C)c1` [Example 1322] displayed an IC50 of over 1000 nM.
For `Cc1cc(C)cc(NCc2nc(-c3ccc(F)cc3)c(-c3nc(C(=O)NC(C)C)cs3)o2)c1` [Example 1323], the half-inhibitory concentration (IC50) is over 1000 nM.
As for `COc1cccc(NCc2nc(-c3ccc(F)cc3)c(-c3nc(C(=O)NC(C)C)cs3)o2)c1` [Example 1324], the IC50 is over 1000 nM.
Under `COc1ccc(NCc2nc(-c3ccc(F)cc3)c(-c3nc(C(=O)NC(C)C)cs3)o2)cc1` [Example 1325] stands over 1000 nM; under `COc1ccccc1NCc1nc(-c2ccc(F)cc2)c(-c2nc(C(=O)NC(C)C)cs2)o1` [Example 1326], over 1000 nM.
As for `COc1ccncc1NCc1nc(-c2ccc(F)cc2)c(-c2nc(C(=O)NC(C)C)cs2)o1` [Example 1327], the IC50 is over 1000 nM.
The molecule `Cc1ccc(NCc2nc(-c3ccc(F)cc3)c(-c3nc(C(=O)NC(C)C)cs3)o2)cc1F` [Example 1328] had an IC50 of over 1000 nM.
On to `Cc1c(F)cccc1NCc1nc(-c2ccc(F)cc2)c(-c2nc(C(=O)NC(C)C)cs2)o1` [Example 1329], for which the IC50 is over 1000 nM.
In turn, `CC(C)NC(=O)c1csc(-c2oc(CNc3cc(F)cc(F)c3)nc2-c2ccc(F)cc2)n1` [Example 1330] came in with a half-maximal inhibitory concentration (IC50) of over 1000 nM.
Then `CC(C)NC(=O)c1csc(-c2oc(CNc3ccc(F)cc3F)nc2-c2ccc(F)cc2)n1` [Example 1331], with over 1000 nM; and `CC(C)NC(=O)c1csc(-c2oc(CNc3ccc4c(c3)CCC4)nc2-c2ccc(F)cc2)n1` [Example 1333], with over 1000 nM; and `CC(C)NC(=O)c1csc(-c2oc(CNc3ccccc3C(C)C)nc2-c2ccc(F)cc2)n1` [Example 1334], with over 1000 nM.
Consider `CC(=O)c1cccc(NCc2nc(-c3ccc(F)cc3)c(-c3nc(C(=O)NC(C)C)cs3)o2)c1` [Example 1335], for which the concentration for half-maximal inhibition (IC50) was over 1000 nM.
The molecule `CC(=O)c1ccc(NCc2nc(-c3ccc(F)cc3)c(-c3nc(C(=O)NC(C)C)cs3)o2)cc1` [Example 1336] returned an IC50 of over 1000 nM.
As for `CCc1cccc(C)c1NCc1nc(-c2ccc(F)cc2)c(-c2nc(C(=O)NC(C)C)cs2)o1` [Example 1337], the half-maximal inhibitory concentration (IC50) is over 1000 nM.
With `Cc1cc(C)c(NCc2nc(-c3ccc(F)cc3)c(-c3nc(C(=O)NC(C)C)cs3)o2)c(C)c1` [Example 1338], the IC50 was over 1000 nM.
`CC(C)NC(=O)c1csc(-c2oc(CNc3ccc4c(c3)OCO4)nc2-c2ccc(F)cc2)n1` [Example 1339] showed an IC50 of over 1000 nM.
In the case of `COc1ccc(NCc2nc(-c3ccc(F)cc3)c(-c3nc(C(=O)NC(C)C)cs3)o2)c(C)c1` [Example 1340], the concentration for half-maximal inhibition (IC50) is over 1000 nM.
Then `CCOc1cccc(NCc2nc(-c3ccc(F)cc3)c(-c3nc(C(=O)NC(C)C)cs3)o2)c1` [Example 1341], with over 1000 nM.
`CCOc1ccccc1NCc1nc(-c2ccc(F)cc2)c(-c2nc(C(=O)NC(C)C)cs2)o1` [Example 1342] yielded an IC50 of over 1000 nM.
`CSc1ccccc1NCc1nc(-c2ccc(F)cc2)c(-c2nc(C(=O)NC(C)C)cs2)o1` [Example 1343] registered an IC50 of over 1000 nM.
With `Cc1c(Cl)cccc1NCc1nc(-c2ccc(F)cc2)c(-c2nc(C(=O)NC(C)C)cs2)o1` [Example 1344], the IC50 is over 1000 nM.
The molecule `Cc1ccc(NCc2nc(-c3ccc(F)cc3)c(-c3nc(C(=O)NC(C)C)cs3)o2)cc1Cl` [Example 1345] came in with a half-inhibitory concentration (IC50) of over 1000 nM.
`CC(C)NC(=O)c1csc(-c2oc(CNc3cnc4ccccc4c3)nc2-c2ccc(F)cc2)n1` [Example 1346]: the IC50 is over 1000 nM.
Under `CC(C)NC(=O)c1csc(-c2oc(CNc3cc(F)c(F)cc3F)nc2-c2ccc(F)cc2)n1` [Example 1347] stands over 1000 nM.
The molecule `CC(C)NC(=O)c1csc(-c2oc(CNc3ccccc3C(C)(C)C)nc2-c2ccc(F)cc2)n1` [Example 1348] gave a concentration for half-maximal inhibition (IC50) of over 1000 nM.
`Cc1cccc(C(C)C)c1NCc1nc(-c2ccc(F)cc2)c(-c2nc(C(=O)NC(C)C)cs2)o1` [Example 1349] showed an IC50 of over 1000 nM.
The molecule `CC(C)NC(=O)c1csc(-c2oc(CNc3ccc4ncsc4c3)nc2-c2ccc(F)cc2)n1` [Example 1350] registered a half-maximal inhibitory concentration (IC50) of over 1000 nM.
Under `CC(=O)Nc1ccc(NCc2nc(-c3ccc(F)cc3)c(-c3nc(C(=O)NC(C)C)cs3)o2)cc1` [Example 1351] stands over 1000 nM; under `CC(=O)Nc1ccc(NCc2nc(-c3ccc(F)cc3)c(-c3nc(C(=O)NC(C)C)cs3)o2)cn1` [Example 1352], over 1000 nM.
Take `CC(C)NC(=O)c1csc(-c2oc(CNc3ccc4c(c3)OCCO4)nc2-c2ccc(F)cc2)n1` [Example 1353]: the IC50 was over 1000 nM.
`CC(C)NC(=O)c1csc(-c2oc(CNc3ccccc3-n3cccc3)nc2-c2ccc(F)cc2)n1` [Example 1354]: the half-inhibitory concentration (IC50) was over 1000 nM.
Turning to `CC(C)NC(=O)c1csc(-c2oc(CNc3ccc(C(F)(F)F)cc3)nc2-c2ccc(F)cc2)n1` [Example 1355], the half-maximal inhibitory concentration (IC50) is over 1000 nM.
The molecule `CC(C)NC(=O)c1csc(-c2oc(CNc3cccc(C(F)(F)F)c3)nc2-c2ccc(F)cc2)n1` [Example 1356] returned a concentration for half-maximal inhibition (IC50) of over 1000 nM.
Take `CC(C)NC(=O)c1csc(-c2oc(CNc3ccc(Cl)c(Cl)c3)nc2-c2ccc(F)cc2)n1` [Example 1357]: the IC50 was over 1000 nM.
With `Cc1cccc(C(C)(C)C)c1NCc1nc(-c2ccc(F)cc2)c(-c2nc(C(=O)NC(C)C)cs2)o1` [Example 1358], the 50% inhibitory concentration (IC50) is over 1000 nM.
In the case of `CC(C)NC(=O)c1csc(-c2oc(CNc3ccc(N(C)C)cc3)nc2-c2ccc(F)cc2)n1` [Example 1359], the 50% inhibitory concentration (IC50) was over 1000 nM.
As for `CC(C)NC(=O)c1csc(-c2oc(CNc3ccccc3-c3ccccc3)nc2-c2ccc(F)cc2)n1` [Example 1360], the IC50 is over 1000 nM.
Under `CC(C)NC(=O)c1csc(-c2oc(CNc3ccc(OC(F)(F)F)cc3)nc2-c2ccc(F)cc2)n1` [Example 1361] stands over 1000 nM; under `CC(C)NC(=O)c1csc(-c2oc(CNc3c(C(C)C)cccc3C(C)C)nc2-c2ccc(F)cc2)n1` [Example 1362], over 1000 nM.
Regarding `CC(C)NC(=O)c1csc(-c2oc(CNc3ccc(F)cc3C(F)(F)F)nc2-c2ccc(F)cc2)n1` [Example 1363], the half-maximal inhibitory concentration (IC50) is over 1000 nM.
Under `CC(C)NC(=O)c1csc(-c2oc(CNc3cc(C(F)(F)F)ccc3F)nc2-c2ccc(F)cc2)n1` [Example 1364] stands over 1000 nM; under `CC(C)NC(=O)c1csc(-c2oc(CNc3ccc(F)c(C(F)(F)F)c3)nc2-c2ccc(F)cc2)n1` [Example 1365], over 1000 nM; under `CCOc1ccc(OCC)c(NCc2nc(-c3ccc(F)cc3)c(-c3nc(C(=O)NC(C)C)cs3)o2)c1` [Example 1366], over 1000 nM.
Molecule `CC(C)NC(=O)c1csc(-c2oc(CNc3cc(Cl)c(Cl)c(Cl)c3)nc2-c2ccc(F)cc2)n1` [Example 1367] showed a 50% inhibitory concentration (IC50) of over 1000 nM.
Take `CC(C)NC(=O)c1csc(-c2oc(CNc3ccccc3C(=O)c3ccccc3)nc2-c2ccc(F)cc2)n1` [Example 1368]: the half-inhibitory concentration (IC50) was over 1000 nM.
For the molecule `CC(C)NC(=O)c1csc(-c2oc(CNc3ccccc3COc3ccccc3)nc2-c2ccc(F)cc2)n1` [Example 1369], the IC50 is over 1000 nM.
The molecule `COc1ccc(-c2ccccc2)cc1NCc1nc(-c2ccc(F)cc2)c(-c2nc(C(=O)NC(C)C)cs2)o1` [Example 1370] displayed a 50% inhibitory concentration (IC50) of over 1000 nM.
Regarding `CC(C)NC(=O)c1csc(-c2oc(CNc3ncccc3OCc3ccccc3)nc2-c2ccc(F)cc2)n1` [Example 1371], the 50% inhibitory concentration (IC50) is over 1000 nM.
Turning to `CC(C)NC(=O)c1csc(-c2oc(CNc3cc(C(F)(F)F)ccc3C(F)(F)F)nc2-c2ccc(F)cc2)n1` [Example 1372], the IC50 was over 1000 nM.
In the case of `CC(C)NC(=O)c1csc(-c2oc(CNc3cc(C(F)(F)F)cc(C(F)(F)F)c3)nc2-c2ccc(F)cc2)n1` [Example 1373], the IC50 was over 1000 nM.
Under `CC(C)NC(=O)c1csc(-c2oc(CNc3ccc(C(F)(F)F)cc3C(F)(F)F)nc2-c2ccc(F)cc2)n1` [Example 1374] stands over 1000 nM.
As to `CC(C)NC(=O)c1csc(-c2c(-c3ccc(F)cc3)noc2CNCCO)n1` [Example 1375], the concentration for half-maximal inhibition (IC50) is over 1000 nM.
On to `CCOC(=O)N1CCC(NCc2onc(-c3ccc(F)cc3)c2-c2nc(C(=O)NC(C)C)cs2)CC1` [Example 1376], for which the IC50 was over 1000 nM.
`COCCNCc1onc(-c2ccc(F)cc2)c1-c1nc(C(=O)NC(C)C)cs1` [Example 1377] came in with a concentration for half-maximal inhibition (IC50) of over 1000 nM.
With `CC(C)NC(=O)c1csc(-c2c(-c3ccc(F)cc3)noc2CNC2CCCc3ccccc32)n1` (stereo not shown) [Example 1378], the half-maximal inhibitory concentration (IC50) was over 1000 nM.
Then `COc1ccc(NCc2onc(-c3ccc(F)cc3)c2-c2nc(C(=O)NC(C)C)cs2)cc1OC` [Example 1379], with over 1000 nM.
Under `CC(C)NC(=O)c1csc(-c2c(-c3ccc(F)cc3)noc2CN(CCC#N)Cc2ccccc2)n1` [Example 1381] stands over 1000 nM; under `CNCc1onc(-c2ccc(F)cc2)c1-c1nc(C(=O)NC(C)C)cs1` [Example 1382], over 1000 nM.
`CCNCc1onc(-c2ccc(F)cc2)c1-c1nc(C(=O)NC(C)C)cs1` [Example 1383] gave a concentration for half-maximal inhibition (IC50) of over 1000 nM.
In turn, `C#CCNCc1onc(-c2ccc(F)cc2)c1-c1nc(C(=O)NC(C)C)cs1` [Example 1384] returned an IC50 of over 1000 nM.
`CC(C)NC(=O)c1csc(-c2c(-c3ccc(F)cc3)noc2CNCC#N)n1` [Example 1385] came in with a half-maximal inhibitory concentration (IC50) of at most 1000 nM.
Under `CC(C)NC(=O)c1csc(-c2c(-c3ccc(F)cc3)noc2CNC2CC2)n1` [Example 1386] stands over 1000 nM; under `CC(C)NCc1onc(-c2ccc(F)cc2)c1-c1nc(C(=O)NC(C)C)cs1` [Example 1387], over 1000 nM.
Regarding `CCCNCc1onc(-c2ccc(F)cc2)c1-c1nc(C(=O)NC(C)C)cs1` [Example 1388], the IC50 is over 1000 nM.
